Experimental data from patent US20170166558A1, “O-GLCNAC TRANSFERASE (OGT) INHIBITORS AND USES THEREOF” (President and Fellows of Harvard College, priority 2014, published 2017).

How the values were obtained:
[1] = test system: cell surface glycans of CHO cells; assay: Lectin blots of cell surface glycans of CHO cells; assay type: cell-based, Chinese hamster; details: 50 μM, 24 hours
Protocol: Lectin blots were performed with the CHO-K1 cell lysate as prepared above. […] The biotin label on the lectins was visualized with incubation with Streptavidin-HRP (Pierce) followed by ECL detection and imaging.

OGT in CHO cells = assay: Immunoblotting of global O-GlcNAcylation (RL2) in CHO cells; assay type: cell-based, Chinese hamster
Protocol: In vivo inhibition of glycosylation: For all immunoblotting experiments, CHO-K1 (CHO) cells were grown in F12-K media supplemented with 10% FBS and antibiotics at 37° C. in a 5% CO2 incubator. Cells were treated by adding indicated inhibitor in DMSO vehicle (0.5% final vehicle concentration) upon reaching 70% confluence. After indicated treatment length, cells were harvested by aspirating growth media and washing with ice cold 1× PBS. Cells were subsequently lysed in boiling 1% SDS/20 mM HEPES 7.9. After cooling to room temperature, 1 mM PMSF, 10 μM PUGNAC, 10 μM TMG and 1× Complete protease inhibitor cocktail were added to the solution. The mixture was sonicated and then subjected to a 5 minute incubation at 95° C. The samples were centrifuged for 15 minutes at 20,000×g and the supernatant was collected and the total protein was measured by BCA assay (BIO-RAD).
(§1) The sample was separated by SDS-PAGE (Bio-Rad 4-15%, Cat: 345-0028), transferred to a nitrocellulose membrane (iBlot, Invitrogen) and probed with the indicated antibody. Tyipcally, membranes were blocked with 4% BSA in 1× TBS+0.04% tween-20 for 1 hour before incubating with antibody (typically diluted 1:1000 in 4% BSA inlx TBS+0.04% tween-20) overnight at 4° C. Membranes were then washed three times with 1× TBS+0.04% tween-20 and incubated with secondary antibody (typically diluted 1:5000 in 4% BSA in 1× TBS+0.04% tween-20) for 1 hour at room temperature. Lastly, membranes were washed 3× with 1× TBS+0.04% tween-20 and imaged with ECL. D283-Med cells were treated as above but grown in F12-K media supplemented with 10% FBS and antibiotics. HEK, HeLa and LNCaP cells were treated as above but grown in RPMI media supplemented with 10% FBS and antibiotics.

Aqueous solubility = assay type: physicochemical
[2] = biological target: T1, full length human OGT (ncOGT) (Homo sapiens, UniProt O15294); assay: UDP-Glo luminescence-based coupled enzyme assay; assay type: biochemical
T1 construct: made in house
T1 sequence (O15294 1-1046): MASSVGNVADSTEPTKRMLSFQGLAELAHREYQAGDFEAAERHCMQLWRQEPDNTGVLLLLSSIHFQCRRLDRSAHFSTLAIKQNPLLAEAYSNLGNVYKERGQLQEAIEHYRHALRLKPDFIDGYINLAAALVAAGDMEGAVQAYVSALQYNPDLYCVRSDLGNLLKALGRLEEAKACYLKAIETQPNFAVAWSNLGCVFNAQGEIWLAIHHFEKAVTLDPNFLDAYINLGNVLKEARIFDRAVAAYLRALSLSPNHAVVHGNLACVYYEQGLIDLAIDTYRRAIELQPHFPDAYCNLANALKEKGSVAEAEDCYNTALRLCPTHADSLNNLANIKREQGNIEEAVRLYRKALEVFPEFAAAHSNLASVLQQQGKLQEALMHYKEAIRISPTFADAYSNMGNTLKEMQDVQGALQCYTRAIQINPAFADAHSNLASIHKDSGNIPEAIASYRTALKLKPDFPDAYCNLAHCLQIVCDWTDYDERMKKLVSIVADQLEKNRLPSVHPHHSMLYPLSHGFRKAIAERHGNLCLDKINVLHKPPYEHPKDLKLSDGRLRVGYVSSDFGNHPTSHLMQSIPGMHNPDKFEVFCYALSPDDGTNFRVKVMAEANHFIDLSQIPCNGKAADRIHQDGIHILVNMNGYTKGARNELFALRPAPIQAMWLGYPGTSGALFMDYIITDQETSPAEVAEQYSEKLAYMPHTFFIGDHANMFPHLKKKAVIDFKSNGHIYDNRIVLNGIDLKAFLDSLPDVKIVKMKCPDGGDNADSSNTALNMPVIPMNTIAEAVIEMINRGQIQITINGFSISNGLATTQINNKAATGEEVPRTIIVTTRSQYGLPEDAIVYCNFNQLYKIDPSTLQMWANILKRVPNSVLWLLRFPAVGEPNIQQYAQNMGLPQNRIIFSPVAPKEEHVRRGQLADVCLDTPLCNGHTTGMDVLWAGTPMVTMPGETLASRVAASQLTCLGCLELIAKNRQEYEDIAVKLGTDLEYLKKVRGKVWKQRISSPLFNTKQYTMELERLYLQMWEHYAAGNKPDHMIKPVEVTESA
Protocol: UDP-Glo assay: Materials for this assay were obtained from Promega (catalog #V6961), and the experiment was performed largely as outlined by the manufacturer. IC50 values were determined in the range of 0 to 100 μM (eleven concentration points). Assays were performed either in white, 96-well or ½-volume 96-well, plates. This assay was run with 125 μM CKII3K peptide acceptor. Reaction volumes were between 14 (half volume plates) and 20 (normal volume plates) μL. Reactions contained the following components: 300 nM ncOGT, 125 μM CKII3K and 40 μM UDP-GlcNAc in 1× PBS pH 7.4 supplemented with 1 mM THP. Reactions were incubated for one hour at 25° C. and quenched by the addition of an equal volume of UDP-Glo nucleotide detection reagent, prepared and used according to manufacturer guidelines. The quenched reactions were then mixed briefly by shaking at 1800 rpm in a Thermomixer C, and incubated for one hour at room temperature prior to reading luminescence, as per the manufacturers guidelines. Data were analyzed by Microsoft Excel and Prism 6 (Graphpad). When evaluating the effect of sugar donor concentration, this parameter was varied, while all other conditions remained as described above. Each sample in this case was run in duplicate, unless otherwise specified. The 40 μM curve in FIG. 16C has each point in quadruplicate. Similarly, there is an n=9 for each point in the OSMI-1 curve in FIG. 16B.

CHO cells = assay: ApoTox-Glo cell viability, cytotoxicity and apoptosis signaling assay; assay type: cell-based, Chinese hamster
Protocol: (§2) Cell viability, cytotoxicity and apoptosis signaling assays were performed in a 96-well plate using ApoTox-Glo reagent (Promega) according to the manufacturer's instructions.

LNCaP cells = assay: LNCaP cell viability and c-Myc stability; assay type: cell-based, human; details: 50 μM
Protocol: as §1, §2

Structure (SMILES): COc1ccccc1[C@@H](NS(=O)(=O)c1ccc2[nH]c(=O)ccc2c1)C(=O)N(Cc1ccco1)Cc1cccs1 [OSMI-1, (R)—N-(furan-2-ylmethyl)-2-(2-methoxyphenyl)-2-(2-oxo-1,2-dihydroquinoline-6-sulfonamido)-N-(thiophen-2-ylmethyl)acetamide]
- Changes in bands detected by ConA, PHA-L, ECL, GSL-I, PNA or DBA [1]: minimal changes
- Onset of reduction of global O-GlcNAcylation (OGT in CHO cells; 50 μM, 8-hour time course): within two hours
- Concentration of maximal reduction of global O-GlcNAcylation (OGT in CHO cells; 24 hr, 10-100 μM tested): 50 µM
- Aqueous solubility (Aqueous solubility): limited aqueous solubility
- IC50 ([2]; 40 μM UDP-GlcNAc, 125 μM CKII3K peptide, read-out: IC50 against ncOGT, coupled enzyme assay): 2700 nM
- Mode of inhibition with respect to UDP-GlcNAc ([2]; various UDP-GlcNAc concentrations): did not act competitively
- Cytotoxicity (CHO cells; 50 μM): not cytotoxic
- Decrease of cell viability (CHO cells; 50 μM, 24 hours): about 50%
- Apoptotic signaling (CHO cells; up to 50 μM): does not trigger apoptotic signaling
- LNCaP cell viability (LNCaP cells; 48 hrs): decrease in cell viability
- c-Myc stability (LNCaP cells; LNCaP cells, 6 and 48 hours): decreases c-Myc stability
